12 molecules from US10323026B2, “Heterocyclic compound” (Takeda Pharmaceutical Company Limited, priority 2016, dated 2019) can be followed below.

In the assay the target is T1, His-hMAGL (recombinant polyhistidine tagged human MAGL protein) (Homo sapiens, UniProt Q99685).
T1 construct: polyhistidine (His) (N); made in house; host or cells: E. coli BL21(DE3)
T1 sequence (Q99685 1-303): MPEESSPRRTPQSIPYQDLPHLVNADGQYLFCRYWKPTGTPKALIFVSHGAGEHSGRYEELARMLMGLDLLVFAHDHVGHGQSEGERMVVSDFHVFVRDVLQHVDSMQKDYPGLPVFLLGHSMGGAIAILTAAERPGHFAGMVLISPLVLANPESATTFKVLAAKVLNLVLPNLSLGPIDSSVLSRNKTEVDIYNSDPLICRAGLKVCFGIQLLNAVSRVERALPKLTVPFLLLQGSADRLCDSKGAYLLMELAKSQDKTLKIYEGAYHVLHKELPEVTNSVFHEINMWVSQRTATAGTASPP
In words: Measurement of MAGL inhibitory activity (RapidFire-mass spectrometry of arachidonic acid produced from 2-arachidonylglycerol). The assay is classed as biochemical. To be noted: test compound 10 μM; His-hMAGL; substrate 2-arachidonylglycerol; 60 min preincubation; read-out: % inhibition (10 μM). Put shortly:
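After quenching with acetonitrile containing 3 μM arachidonic acid-d8, the arachidonic acid formed was measured by online SPE RapidFire-MS/MS in negative SRM mode and corrected against the d8 standard. Inhibition (%) was calculated relative to compound-free and enzyme-free groups.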
As to `O=C1N[C@]2(CO1)C[C@H](C(=O)N1CC(CC(F)(F)c3ccc(C(F)(F)F)cc3F)C1)C2` [Example 91, (2s,4s)-2-((3-(2,2-difluoro-2-(2-fluoro-4-(trifluoromethyl)phenyl)ethyl)azetidin-1-yl)carbonyl)-7-oxa-5-azaspiro[3.4]octan-6-one], the inhibition (commonly the drop in the measured response relative to a control, in per cent) at 10 µM was 100%.
With `Cc1cc(Cl)ccc1COC1CN(C(=O)[C@H]2C[C@]3(COC(=O)N3)C2)C1` [Example 92, (2s,4s)-2-((3-((4-chloro-2-methylbenzyl)oxy)azetidin-1-yl)carbonyl)-7-oxa-5-azaspiro[3.4]octan-6-one], the inhibition at 10 µM was determined as 100%.
Turning to `Cc1ccc(COC2CN(C(=O)[C@H]3C[C@]4(COC(=O)N4)C3)C2)c(F)c1F` [Example 94, (2s,4s)-2-((3-((2,3-difluoro-4-methylbenzyl)oxy)azetidin-1-yl)carbonyl)-7-oxa-5-azaspiro[3.4]octan-6-one], the inhibition at 10 µM worked out at 100%.
For the molecule `O=C1N[C@]2(CO1)C[C@H](C(=O)N1CC(OCc3ccc(C(F)(F)F)c(F)c3F)C1)C2` [Example 96, (2s,4s)-2-((3-((2,3-difluoro-4-(trifluoromethyl)benzyl)oxy)azetidin-1-yl)carbonyl)-7-oxa-5-azaspiro[3.4]octan-6-one], the inhibition at 10 µM was determined as 100%.
As to `O=C1N[C@]2(CO1)C[C@H](C(=O)N1CC(CC(F)(F)c3ccc(C(F)(F)F)c(F)c3)C1)C2` [Example 99, (2s,4s)-2-((3-(2,2-difluoro-2-(3-fluoro-4-(trifluoromethyl)phenyl)ethyl)azetidin-1-yl)carbonyl)-7-oxa-5-azaspiro[3.4]octan-6-one], the inhibition at 10 µM amounted to 100%.
In the case of `O=C1N[C@]2(CO1)C[C@H](C(=O)N1CC(CC(F)(F)c3ccc(F)c(C(F)(F)F)c3)C1)C2` [Example 100, (2s,4s)-2-((3-(2,2-difluoro-2-(4-fluoro-3-(trifluoromethyl)phenyl)ethyl)azetidin-1-yl)carbonyl)-7-oxa-5-azaspiro[3.4]octan-6-one] it was 100%; in that of `O=C1N[C@]2(CO1)C[C@H](C(=O)N1CC(OCc3cc(F)c(C(F)(F)F)cc3F)C1)C2` [Example 101, (2s,4s)-2-((3-((2,5-difluoro-4-(trifluoromethyl)benzyl)oxy)azetidin-1-yl)carbonyl)-7-oxa-5-azaspiro[3.4]octan-6-one], 100%.
Regarding `O=C1N[C@]2(CO1)C[C@H](C(=O)N1CC(OCc3ccc(C(F)(F)F)c(Cl)c3F)C1)C2` [Example 102, (2s,4s)-2-((3-((3-chloro-2-fluoro-4-(trifluoromethyl)benzyl)oxy)azetidin-1-yl)carbonyl)-7-oxa-5-azaspiro[3.4]octan-6-one], the inhibition at 10 µM came to 100%.
As for `O=C1N[C@]2(CO1)C[C@H](C(=O)N1CC(CC(F)(F)c3ccc(C(F)(F)F)c(F)c3F)C1)C2` [Example 103, (2s,4s)-2-((3-(2-(2,3-difluoro-4-(trifluoromethyl)phenyl)-2,2-difluoroethyl)azetidin-1-yl)carbonyl)-7-oxa-5-azaspiro[3.4]octan-6-one], the inhibition at 10 µM came to 100%.
Regarding `O=C1N[C@]2(CO1)C[C@H](C(=O)N1CC(/C=C(\F)c3ccc(C(F)(F)F)c(F)c3F)C1)C2` [Example 104, (2s,4s)-2-((3-((Z)-2-(2,3-difluoro-4-(trifluoromethyl)phenyl)-2-fluorovinyl)azetidin-1-yl)carbonyl)-7-oxa-5-azaspiro[3.4]octan-6-one], the inhibition at 10 µM turned out to be 100%.
Take `O=C1N[C@]2(CO1)C[C@H](C(=O)N1CC(OCc3cc(Cl)c(F)c(Cl)c3)C1)C2` [Example 106, (2s,4s)-2-((3-((3,5-dichloro-4-fluorobenzyl)oxy)azetidin-1-yl)carbonyl)-7-oxa-5-azaspiro[3.4]octan-6-one]: the inhibition at 10 µM was found to be 100%.
To `Cc1ccc(C(F)(F)CC2CN(C(=O)[C@H]3C[C@]4(COC(=O)N4)C3)C2)cc1Cl` [Example 109, (2s,4s)-2-((3-(2-(3-chloro-4-methylphenyl)-2,2-difluoroethyl)azetidin-1-yl)carbonyl)-7-oxa-5-azaspiro[3.4]octan-6-one] belongs 99%.
